Assay results taken from patent publication US10407409B2, “6-(5-hydroxy-1H-pyrazol-1-yl)nicotinamide inhibitors of PHD” (Takeda Pharmaceutical Company Limited, priority 2013, dated 2019).

Key:
[1] = biological target: PHD2 enzyme (residues 181-417) (Homo sapiens (Human), UniProt Q9GZT9); test: Inhibition of PHD enzyme (LC/MS peptide hydroxylation assay); type: biochemical; conditions: PHD2 (residues 181-417) 5 nM, 60 min pre-incubation; -log(IC50), IC50 molar
In short: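 PHD2 (5 nM final) preincubated with inhibitor 60 min at RT in 50 mM HEPES, 50 mM KCl, 0.5 mM TCEP, 2 uM FeCl2, 0.1 mg/ml BSA, pH 7.3. Reaction started with biotin-peptide (1 uM), 2-oxoglutarate (2 uM), ascorbate (1 mM), quenched at 60 min; hydroxylated product by LC/MS, reported as pIC50.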

[2] = test system: HIF1a protein in H9c2 rat cardiomyocytes; test: Cell-based HIF-alpha stabilization assay (inhibition of PHD in cells); conditions: 24 hrs compound incubation, HIF1a protein by ELISA; for EC50: Rattus norvegicus, H9c2, 24 h, read-out: Inhibition of PHD in cells (pEC50) (converted)
In short: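 Rat H9c2 cardiomyocytes, cultured 24 h, were treated 24 h with an 11-point serial dilution of compound. HIF1a in whole-cell lysates was quantified by ELISA as % of the maximal desferrioxamine response. EC50 came from curve fitting; EC50pos is the concentration reaching 50% of the desferrioxamine maximum.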

Sequence of PHD2 enzyme (residues 181-417) (Q9GZT9 181-417): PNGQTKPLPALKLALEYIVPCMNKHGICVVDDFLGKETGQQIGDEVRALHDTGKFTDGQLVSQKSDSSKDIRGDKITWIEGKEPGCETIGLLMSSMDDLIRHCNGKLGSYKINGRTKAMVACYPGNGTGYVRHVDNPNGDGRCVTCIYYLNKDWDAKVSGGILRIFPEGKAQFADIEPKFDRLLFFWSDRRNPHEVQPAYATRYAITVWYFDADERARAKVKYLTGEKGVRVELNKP

Row | PHD Inhibition (pIC50) [1] | SMILES | EC50 [2] [µM] | Inhibition of PHD in cells (pEC50) [2]
1 | 7.04 | CCCN1CCC(NC(=O)c2ccc(-n3ncc(-c4ccnc(OC)c4)c3O)nc2)CC1 [Example 24, 6-(5-hydroxy-4-(2-methoxypyridin-4-yl)-1H-pyrazol-1-yl)-N-(1-propylpiperidin-4-yl)nicotinamide] | 10.7 | 
2 | 8 | Cc1cc(C#N)ccc1-c1cnn(-c2ccc(C(=O)NCCCn3ccnc3)cn2)c1O [Example 106, N-(3-(1H-imidazol-1-yl)propyl)-6-(4-(4-cyano-2-methylphenyl)-5-hydroxy-1H-pyrazol-1-yl)nicotinamide] | 0.355 | 
3 | 6.89 | COCC1(NC(=O)c2ccc(-n3ncc(-c4ccc(C#N)cc4)c3O)nc2)CCC1 [Example 199, 6-(4-(4-cyanophenyl)-5-hydroxy-1H-pyrazol-1-yl)-N-(1-(methoxymethyl)cyclobutyl)nicotinamide] | 2.34 | 
4 | 8.26 | Cc1cc(C#N)ccc1-c1cnn(-c2ccc(C(=O)N3CCN(C)[C@@H](C)C3)cn2)c1O [Example 372, (S)-4-(1-(5-(3,4-dimethylpiperazine-1-carbonyl)pyridin-2-yl)-5-hydroxy-1H-pyrazol-4-yl)-3-methylbenzonitrile] | 0.832 | 
5 | 8.60 | COCC[C@H](C)NC(=O)c1ccc(-n2ncc(-c3ccc(C#N)cc3C)c2O)nc1 [Example 360, (S)-6-(4-(4-cyano-2-methylphenyl)-5-hydroxy-1H-pyrazol-1-yl)-N-(4-methoxybutan-2-yl)nicotinamide] | 0.407 | 
6 | 7.47 | N#Cc1ccc(-c2cnn(-c3ccc(C(=O)N4CCC[C@H]4CN4CCCC4)cn3)c2O)cc1 [Example 352, (S)-4-(5-hydroxy-1-(5-(2-(pyrrolidin-1-ylmethyl)pyrrolidine-1-carbonyl)pyridin-2-yl)-1H-pyrazol-4-yl)benzonitrile] | 3.47 | 
7 | 7.39 | N#Cc1ccc(-c2cnn(-c3ccc(C(=O)N[C@H]4CC[C@H](O)C4)cn3)c2O)cc1 [Example 259, 6-(4-(4-cyanophenyl)-5-hydroxy-1H-pyrazol-1-yl)-N-((1s,3s)-3-hydroxycyclopentyl)nicotinamide] | 1 | 
8 | 6.97 | N#Cc1cnn(-c2cnn(-c3ccc(C(=O)NCc4ccccc4)cn3)c2O)c1 [Example 157, N-benzyl-6-(4-cyano-5′-hydroxy-1′H-[1,4′-bipyrazol]-1′-yl)nicotinamide] | 1.7 | 
9 | 8 | Cc1cc(C#N)ccc1-c1cnn(-c2ccc(C(=O)NCCCN3CCCC3)cn2)c1O [Example 105, 6-(4-(4-cyano-2-methylphenyl)-5-hydroxy-1H-pyrazol-1-yl)-N-(3-(pyrrolidin-1-yl)propyl)nicotinamide] | 0.0617 | 
10 | 7.27 | COCC1(CNC(=O)c2ccc(-n3ncc(-c4ccnc(OC)c4)c3O)nc2)CC1 [Example 14, 6-(5-hydroxy-4-(2-methoxypyridin-4-yl)-1H-pyrazol-1-yl)-N-((1-(methoxymethyl)cyclopropyl)methyl)nicotinamide] | 0.871 | 
11 | 7.17 | COCCCNC(=O)c1ccc(-n2ncc(-c3ccc(C#N)cc3C)c2O)nc1 [Example 121, 6-(4-(4-cyano-2-methylphenyl)-5-hydroxy-1H-pyrazol-1-yl)-N-(3-methoxypropyl)nicotinamide] | 0.191 | 
12 | 7.23 | CCC(C)NC(=O)c1ccc(-n2ncc(-c3ccc(C#N)cc3)c2O)nc1 (stereo not drawn) [Example 80, N-(sec-butyl)-6-(4-(4-cyanophenyl)-5-hydroxy-1H-pyrazol-1-yl)nicotinamide] | 1.07 | 
13 | 7.5 | COc1cc(-c2cnn(-c3ccc(C(=O)NCCC4CCCN4C)cn3)c2O)ccn1 (stereo not drawn) [Example 31, 6-(5-hydroxy-4-(2-methoxypyridin-4-yl)-1H-pyrazol-1-yl)-N-(2-(1-methylpyrrolidin-2-yl)ethyl)nicotinamide] |  | 6.00
14 | 8.1 | Cc1cc(C#N)ccc1-c1cnn(-c2ccc(C(=O)NC3CCN(C)CC3)cn2)c1O [Example 100, 6-(4-(4-cyano-2-methylphenyl)-5-hydroxy-1H-pyrazol-1-yl)-N-(1-methylpiperidin-4-yl)nicotinamide] | 0.0759 | 
15 | 7.44 | Cc1cc(-n2ncc(-c3ccc(C#N)cc3)c2O)ncc1C(=O)N1CCN(C)CC1 [Example 430, 4-(5-hydroxy-1-(4-methyl-5-(4-methylpiperazine-1-carbonyl)pyridin-2-yl)-1H-pyrazol-4-yl)benzonitrile] | 8.51 | 
16 | 7.22 | CC1(C)CC1NC(=O)c1ccc(-n2ncc(-c3ccc(C#N)cc3)c2O)nc1 (stereo not drawn) [Example 54, 6-(4-(4-cyanophenyl)-5-hydroxy-1H-pyrazol-1-yl)-N-(2,2-dimethylcyclopropyl)nicotinamide] | 0.331 | 
17 | 8.46 | COCC[C@@H](C)NC(=O)c1ccc(-n2ncc(-c3ccc(C#N)cc3)c2O)nc1 [Example 357, (R)-6-(4-(4-cyanophenyl)-5-hydroxy-1H-pyrazol-1-yl)-N-(4-methoxybutan-2-yl)nicotinamide] | 2.4 | 
18 | 8.44 | Cc1c(-c2cnn(-c3ccc(C(=O)N4CCCC4)cn3)c2O)ccc(C#N)c1F [Example 325, 2-fluoro-4-(5-hydroxy-1-(5-(pyrrolidine-1-carbonyl)pyridin-2-yl)-1H-pyrazol-4-yl)-3-methylbenzonitrile] | 0.977 | 
19 | 7.78 | COCCCNC(=O)c1ccc(-n2ncc(-c3cc(C)c(C#N)cc3C)c2O)nc1 [Example 403, 6-(4-(4-cyano-2,5-dimethylphenyl)-5-hydroxy-1H-pyrazol-1-yl)-N-(3-methoxypropyl)nicotinamide] | 1.86 | 
20 | 7.24 | Cc1cc(C#N)ccc1-c1cnn(-c2ccc(C(=O)NC(CO)C3CCOC3)cn2)c1O (stereo not drawn) [Example 71, 6-(4-(4-cyano-2-methylphenyl)-5-hydroxy-1H-pyrazol-1-yl)-N-(2-hydroxy-1-(tetrahydrofuran-3-yl)ethyl)nicotinamide] | 0.269 | 
21 | 7.94 | Cc1cc(C#N)ccc1-c1cnn(-c2ccc(C(=O)N(C)CCN(C)C)cn2)c1O [Example 286, 6-(4-(4-cyano-2-methylphenyl)-5-hydroxy-1H-pyrazol-1-yl)-N-(2-(dimethylamino)ethyl)-N-methylnicotinamide] | 0.603 | 
22 | 8.46 | Cc1cc(C#N)ccc1-c1cnn(-c2ccc(C(=O)N3CCN(C)CC(F)(F)C3)cn2)c1O [Example 299, 4-(1-(5-(6,6-difluoro-4-methyl-1,4-diazepane-1-carbonyl)pyridin-2-yl)-5-hydroxy-1H-pyrazol-4-yl)-3-methylbenzonitrile] | 1.05 | 
23 | 7.98 | Cc1cc(C#N)ccc1-c1cnn(-c2ccc(C(=O)N3CCC(CN(C)C)CC3)cn2)c1O [Example 419, 4-(1-(5-(4-((dimethylamino)methyl)piperidine-1-carbonyl)pyridin-2-yl)-5-hydroxy-1H-pyrazol-4-yl)-3-methylbenzonitrile] | 0.631 | 
24 | 6.95 | Cc1cc(C#N)ccc1-c1cnn(-c2ccc(C(=O)N[C@H](C)C3CC3)cn2)c1O [Example 138A, (R)-6-(4-(4-cyano-2-methylphenyl)-5-hydroxy-1H-pyrazol-1-yl)-N-(1-cyclopropylethyl)nicotinamide] | 0.302 | 
25 | 7.05 | CC[C@H](CC#N)NC(=O)c1ccc(-n2ncc(-c3ccc(C#N)cc3)c2O)nc1 [Example 74, (R)—N-(1-cyanobutan-2-yl)-6-(4-(4-cyanophenyl)-5-hydroxy-1H-pyrazol-1-yl)nicotinamide] | 3.16 | 
26 | 7.95 | CCN(C(=O)c1ccc(-n2ncc(-c3ccc(C#N)cc3C)c2O)nc1)C1CCN(C)CC1 [Example 429, 6-(4-(4-cyano-2-methylphenyl)-5-hydroxy-1H-pyrazol-1-yl)-N-ethyl-N-(1-methylpiperidin-4-yl)nicotinamide] | 0.589 | 
27 | 7.22 | CC(NC(=O)c1ccc(-n2ncc(-c3ccc(C#N)cc3)c2O)nc1)C1CCCO1 (stereo not drawn) [Example 113, 6-(4-(4-cyanophenyl)-5-hydroxy-1H-pyrazol-1-yl)-N-(1-(tetrahydrofuran-2-yl)ethyl)nicotinamide] | 1.38 | 
28 | 7.28 | CCN1CCCC1CN(C)C(=O)c1ccc(-n2ncc(-c3ccc(C#N)cc3)c2O)nc1 (stereo not drawn) [Example 363, 6-(4-(4-cyanophenyl)-5-hydroxy-1H-pyrazol-1-yl)-N-((1-ethylpyrrolidin-2-yl)methyl)-N-methylnicotinamide] | 2.09 | 
29 | 7.35 | CC1(NC(=O)c2ccc(-n3ncc(-c4ccc(C#N)cc4)c3O)nc2)CC1 [Example 198, 6-(4-(4-cyanophenyl)-5-hydroxy-1H-pyrazol-1-yl)-N-(1-methylcyclopropyl)nicotinamide] | 0.741 | 
30 | 8.23 | Cc1cc(C#N)ccc1-c1cnn(-c2ccc(C(=O)N(C)C3CCN(C4CC4)CC3)cn2)c1O [Example 296, 6-(4-(4-cyano-2-methylphenyl)-5-hydroxy-1H-pyrazol-1-yl)-N-(1-cyclopropylpiperidin-4-yl)-N-methylnicotinamide] | 1 | 
